Experimental findings from ChEMBL document CHEMBL1201862, “PubChem BioAssay data set” (2004) are described below.

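Briefly, cells in 96-well plates were exposed to five compound concentrations for 48 h, and endpoints were estimated by linear interpolation. GI50 is the concentration that inhibits growth by half.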 The source made the active and inactive calls. Cut-off read from the data, not from the text of the source: active = GI50 up to about 1.1 µM and inactive = higher.

Among the test systems are OVCAR-5; MOLT-4; NCI-H226; HCC 2998; NCI-H23; HOP-62; NCI-H460; UACC-62; SF-295; A549; KM12; NCI-H522; CCRF-CEM; SW-620; EKVX; SNB-19; ACHN; MCF7.
What all share (assay): DTP human tumour cell line panel, 48 h

Broadly, the GI50 is the concentration that inhibits growth by half.

For the compound `Cc1coc2c1C(=O)C(=O)c1ccccc1-2`, the GI50 in the test with OVCAR-5 is 2.11 µM (inactive); in the test with MOLT-4, 2.21 µM (inactive); in the test with NCI-H226 it was 1.21 µM (inactive); in the test on HCC 2998, 1.9 µM (inactive); in the test with NCI-H23, 1.92 µM (inactive); in the test with HOP-62, 1.64 µM (inactive). Further, the GI50 in the test on NCI-H460 was 1.77 µM (inactive); in the test with UACC-62, 1.59 µM (inactive); with SF-295 it was 1.65 µM (inactive); in the test with A549, 2.04 µM (inactive); in the test with KM12 it was 1.81 µM (inactive); with NCI-H522, 1.72 µM (inactive). In addition, the values for the GI50 with CCRF-CEM and in the test with SW-620 were 2.22 µM (inactive) and 1.41 µM (inactive), respectively.

For the compound `N#CCC(=O)N/N=C1/C(=O)N(c2cc(Cl)ccc2Cl)C(=O)C(=O)C1c1nc2ccccc2s1` (stereo not drawn), the GI50 is > 100 µM (inactive) with OVCAR-5; 43.4 µM (inactive) in the test with EKVX; 45.9 µM (inactive) in the test on MOLT-4; > 100 µM (inactive) in the test with NCI-H226; > 100 µM (inactive) in the test with HCC 2998; > 100 µM (inactive) with NCI-H23. Further, the GI50 in the test on HOP-62 was > 100 µM (inactive); in the test with NCI-H460, 95.7 µM (inactive); with UACC-62, 29.8 µM (inactive); in the test with SF-295, 94.4 µM (inactive); in the test on SNB-19, 64.3 µM (inactive); with A549, > 100 µM (inactive). The GI50 was > 100 µM (inactive) in the test on KM12; 61 µM (inactive) with NCI-H522; 36.9 µM (inactive) in the test with CCRF-CEM; > 100 µM (inactive) with ACHN; 73.5 µM (inactive) with SW-620.

Consider `C/C(CCN(C)C)=N\OC(=O)c1ccccc1`, for which the GI50 in the test on OVCAR-5, with EKVX, with MOLT-4, with NCI-H226, in the test on HCC 2998 and with NCI-H23 was > 100 µM (inactive) throughout. Moreover, the GI50 with HOP-62 is > 100 µM (inactive); in the test on NCI-H460, > 100 µM (inactive); in the test with UACC-62, > 100 µM (inactive); in the test with SF-295 it was 63.7 µM (inactive); in the test with SNB-19, > 100 µM (inactive); in the test on A549, > 100 µM (inactive). Moreover, the GI50 with KM12, in the test on NCI-H522, in the test with CCRF-CEM, with ACHN and with SW-620 was > 100 µM (inactive) each time.

For the compound `COc1cc2c(cc1OC)[C@@H](C(O)c1ccccc1)NCC2` (stereo partly drawn), the GI50 in the test on OVCAR-5, in the test on EKVX, with MOLT-4, with NCI-H226, in the test with HCC 2998 and in the test on NCI-H23 was > 100 µM (inactive) in each case. For the same compound, the GI50 in the test on HOP-62, in the test on NCI-H460, in the test with UACC-62, with SF-295, with SNB-19 and in the test on A549 was > 100 µM (inactive) each time. The GI50 with KM12, in the test with NCI-H522, in the test on CCRF-CEM, in the test on ACHN and with SW-620 was > 100 µM (inactive) each time.

Take `CC[C@@]1(O)C[C@H](OC2CC(N(C)C)C(OC3CC(O)C(OC4CC(O)C(O)C(C)O4)C(C)O3)C(C)O2)c2c(cc3c(c2O)C(=O)c2c(O)ccc(O)c2C3=O)[C@H]1C(=O)OC` (stereo partly drawn): the GI50 is 0.254 µM (active) in the test with OVCAR-5; 0.0413 µM (active) with EKVX; 0.0141 µM (active) in the test with MOLT-4; 0.0427 µM (active) with NCI-H226; 0.1 µM (active) in the test on HCC 2998; 0.0404 µM (active) with NCI-H23. For the same compound, the GI50 in the test on MCF7 was 0.0156 µM (active); with HOP-62, 0.06 µM (active); in the test with NCI-H460, 0.00577 µM (active); with UACC-62, 0.017 µM (active); in the test on SF-295, 0.0113 µM (active); with SNB-19, 0.0346 µM (active). In addition, the GI50 in the test on A549 was 0.0105 µM (active); with KM12, < 0.0174 µM (active); in the test on NCI-H522, 0.0343 µM (active); in the test on CCRF-CEM it was < 0.0181 µM (active); in the test on SW-620, 0.00875 µM (active).

For the compound `COC(OC)c1cc2c(cc1C=O)OCO2`, the GI50 in the test on OVCAR-5, in the test on EKVX, in the test on MOLT-4, with NCI-H226, with HCC 2998 and in the test with NCI-H23 was > 100 µM (inactive) each time. Further, the GI50 with HOP-62 was > 100 µM (inactive); with NCI-H460, > 100 µM (inactive); with UACC-62, 44 µM (inactive); in the test with SNB-19, > 100 µM (inactive); with A549, > 100 µM (inactive); with KM12 it was > 100 µM (inactive). Further, the GI50 in the test with NCI-H522, with CCRF-CEM, in the test with ACHN and in the test on SW-620 was > 100 µM (inactive) in each case.

For the compound `COc1ccc(C2C(Cl)C(=O)N2NC(=O)Cc2ccccc2)cc1OC` (stereo not drawn), the GI50 with OVCAR-5, with EKVX, in the test with MOLT-4, with NCI-H226, in the test with HCC 2998 and in the test with NCI-H23 was > 100 µM (inactive) in each case. For the same compound, the GI50 in the test with HOP-62, with NCI-H460, with UACC-62, in the test with SF-295, with SNB-19 and in the test on A549 was > 100 µM (inactive) each time. For the same compound, the GI50 with KM12, in the test on NCI-H522, in the test with CCRF-CEM, with ACHN and in the test with SW-620 was > 100 µM (inactive) in each case.

In the case of `CC(=O)NNc1nc(C)c(C(=O)NNC(=O)C(=O)Nc2c(C)cccc2C(C)(C)C)s1`, the GI50 is > 100 µM (inactive) in the test on OVCAR-5; > 100 µM (inactive) in the test on EKVX; 41.1 µM (inactive) in the test on MOLT-4; > 100 µM (inactive) in the test on NCI-H226; 25.6 µM (inactive) in the test on HCC 2998; > 100 µM (inactive) in the test on NCI-H23. Also, the GI50 with HOP-62 was > 100 µM (inactive); with NCI-H460 it was 52.2 µM (inactive); with UACC-62, 97.9 µM (inactive); with SF-295, > 100 µM (inactive); in the test with SNB-19, > 100 µM (inactive); in the test on A549, 46.9 µM (inactive). In addition, the GI50 in the test with KM12 was > 100 µM (inactive); with NCI-H522, 20.9 µM (inactive); in the test on CCRF-CEM it was 16.2 µM (inactive); in the test on ACHN, 59.4 µM (inactive); in the test with SW-620, > 100 µM (inactive).

As for `Cc1ccc(C2CC(c3ccc([N+](=O)[O-])cc3)=Nc3ccccc3S2)cc1` (stereo not drawn), the GI50 is 44.5 µM (inactive) in the test on OVCAR-5; 42.6 µM (inactive) with EKVX; 15.1 µM (inactive) in the test with MOLT-4; 44.6 µM (inactive) in the test on NCI-H226; 20.3 µM (inactive) in the test on HCC 2998; 19.5 µM (inactive) in the test with NCI-H23. In addition, the GI50 is 61.5 µM (inactive) in the test with HOP-62; 36.9 µM (inactive) with NCI-H460; 32.8 µM (inactive) with UACC-62; 27.4 µM (inactive) in the test with SF-295; 23 µM (inactive) in the test with SNB-19; 22.3 µM (inactive) with A549. The GI50 with KM12 is 18.4 µM (inactive); with NCI-H522 it was 20.1 µM (inactive); with CCRF-CEM, 12.9 µM (inactive); with ACHN, 27.6 µM (inactive); with SW-620, 20 µM (inactive).

For `CCC(C)n1c(C)nc2c1C(=O)c1ccccc1C2=O` (stereo not drawn), the GI50 in the test with EKVX was 96.8 µM (inactive); in the test on MOLT-4, 28.1 µM (inactive); in the test on NCI-H226, 61.9 µM (inactive); in the test on HCC 2998, 60.8 µM (inactive); in the test with NCI-H23, 33.2 µM (inactive); in the test with HOP-62 it was 58.2 µM (inactive). For the same compound, the GI50 in the test with NCI-H460 was 19.3 µM (inactive); in the test with UACC-62, 28.2 µM (inactive); in the test with SF-295, 49.8 µM (inactive); in the test on SNB-19 it was 96.6 µM (inactive); with A549, 33.9 µM (inactive); with KM12, > 100 µM (inactive). Further, the GI50 was 51.3 µM (inactive) in the test on NCI-H522, 37.2 µM (inactive) with CCRF-CEM, 46.9 µM (inactive) with ACHN and 64.7 µM (inactive) with SW-620.

For `Cc1nc2c(=O)[nH]c(=O)n(C)c2[nH]c1=O.c1ccncc1`, the GI50 in the test on OVCAR-5, with EKVX, in the test with MOLT-4, with NCI-H226, in the test on HCC 2998 and in the test with NCI-H23 was > 100 µM (inactive) in each case. In addition, the GI50 with HOP-62, with NCI-H460, in the test with UACC-62, in the test with SNB-19, in the test with A549 and in the test on KM12 was > 100 µM (inactive) throughout. Also, the GI50 in the test on NCI-H522 is > 100 µM (inactive); with CCRF-CEM, 10 µM (inactive); with ACHN, > 100 µM (inactive); in the test with SW-620, > 100 µM (inactive).

For `CC(=O)Nc1ccc(/C=C/c2ccc(NC(=O)Nc3ccc(/C=C/c4ccc(NC(C)=O)cc4S(=O)(=O)O)c(S(=O)(=O)O)c3)cc2S(=O)(=O)O)c(S(=O)(=O)O)c1`, the GI50 with OVCAR-5 is > 100 µM (inactive); in the test on EKVX, > 100 µM (inactive); in the test on MOLT-4, > 100 µM (inactive); in the test on NCI-H226, 39.8 µM (inactive); in the test on HCC 2998, 98.6 µM (inactive); in the test with NCI-H23, > 100 µM (inactive). Besides, the GI50 with MCF7, in the test with HOP-62, with NCI-H460, with UACC-62, in the test with SF-295 and in the test on SNB-19 was > 100 µM (inactive) each time. The GI50 with A549, in the test with KM12, in the test on NCI-H522, with CCRF-CEM and in the test with SW-620 was > 100 µM (inactive) in each case.
